ChEMBL document CHEMBL1155271, “Synthesis, crystal structures and antibacterial activity studies of aza-derivatives of phytoalexin from cotton plant--gossypol” (2009)
≈ marks a conversion by molar mass, not a printed value. Calls of active or inactive are those of the source. The rule behind the calls is not given here.

Experiments:
Format in all cases: functional
[1] = tested on: Staphylococcus aureus; experiment: Antimicrobial activity against Staphylococcus aureus ATCC 6538 after 18 hrs by twofold dilution technique; settings: ATCC 6538, 18 h
[2] = tested on: Staphylococcus aureus; experiment: Antimicrobial activity against Staphylococcus aureus NCTC 4163 after 18 hrs by twofold dilution technique; settings: NCTC 4163, 18 h
[3] = tested on: Staphylococcus aureus; experiment: Antimicrobial activity against Staphylococcus aureus ATCC 25923 at 400 ug after 18 hrs by disk diffusion method; settings: ATCC 25923, 18 h, read-out: DIZ
[4] = tested on: Staphylococcus aureus; experiment: Antimicrobial activity against methicillin-resistant Staphylococcus aureus 143/6 by twofold dilution technique
[5] = tested on: Staphylococcus aureus; experiment: Antimicrobial activity against Methicillin susceptible Staphylococcus aureus 212/7 by twofold dilution technique
[6] = tested on: Staphylococcus aureus; experiment: Antimicrobial activity against methicillin-resistant Staphylococcus aureus 218/7 by twofold dilution technique
[7] = tested on: Staphylococcus aureus; experiment: Antimicrobial activity against methicillin-resistant Staphylococcus aureus 141/6 by twofold dilution technique
[8] = tested on: Staphylococcus aureus; experiment: Antimicrobial activity against Methicillin susceptible Staphylococcus aureus 213/7 by twofold dilution technique
[9] = tested on: Staphylococcus aureus; experiment: Antimicrobial activity against Staphylococcus aureus ATCC 25923 after 18 hrs by twofold dilution technique; settings: ATCC 25923, 18 h
[10] = tested on: Bacillus subtilis; experiment: Antimicrobial activity against Bacillus subtilis ATCC 6633 at 400 ug after 18 hrs by disk diffusion method; settings: ATCC 6633, 18 h, read-out: DIZ
[11] = tested on: Staphylococcus aureus; experiment: Antimicrobial activity against methicillin-resistant Staphylococcus aureus 200/7 by twofold dilution technique
[12] = tested on: Enterococcus hirae; experiment: Antimicrobial activity against Enterococcus hirae ATCC 10541 after 18 hrs by twofold dilution technique; settings: ATCC 10541, 18 h
[13] = tested on: Staphylococcus aureus; experiment: Antimicrobial activity against Methicillin susceptible Staphylococcus aureus 238/7 by twofold dilution technique
[14] = tested on: Staphylococcus aureus; experiment: Antimicrobial activity against Methicillin susceptible Staphylococcus aureus 206/7 by twofold dilution technique
[15] = tested on: Staphylococcus aureus; experiment: Antimicrobial activity against Staphylococcus aureus ATCC 6538 at 400 ug after 18 hrs by disk diffusion method; settings: ATCC 6538, 18 h, read-out: DIZ
[16] = tested on: Micrococcus luteus; experiment: Antimicrobial activity against Micrococcus luteus ATCC 10240 by twofold dilution technique
[17] = tested on: Staphylococcus aureus; experiment: Antimicrobial activity against Methicillin susceptible Staphylococcus aureus 243/7 by twofold dilution technique
[18] = tested on: Staphylococcus aureus; experiment: Antimicrobial activity against Methicillin susceptible Staphylococcus aureus 208/7 by twofold dilution technique
[19] = tested on: Staphylococcus epidermidis; experiment: Antimicrobial activity against Staphylococcus epidermidis ATCC 12228 at 400 ug after 18 hrs by disk diffusion method; settings: ATCC 12228, 18 h, read-out: DIZ
[20] = tested on: Staphylococcus aureus; experiment: Antimicrobial activity against Methicillin susceptible Staphylococcus aureus 207/7 by twofold dilution technique
[21] = tested on: Staphylococcus epidermidis; experiment: Antimicrobial activity against Staphylococcus epidermidis ATCC 12228 by twofold dilution technique
[22] = tested on: Staphylococcus aureus; experiment: Antimicrobial activity against Methicillin susceptible Staphylococcus aureus 239/7 by twofold dilution technique
[23] = tested on: Enterococcus hirae; experiment: Antimicrobial activity against Enterococcus hirae ATCC 10541 at 400 ug after 18 hrs by disk diffusion method
[24] = tested on: Staphylococcus aureus; experiment: Antimicrobial activity against Methicillin susceptible Staphylococcus aureus 242/7 by twofold dilution technique
[25] = tested on: Staphylococcus aureus; experiment: Antimicrobial activity against methicillin-resistant Staphylococcus aureus 217/7 by twofold dilution technique
[26] = tested on: Bacillus cereus; experiment: Antimicrobial activity against Bacillus cereus ATCC 11778 at 400 ug after 18 hrs by disk diffusion method; settings: ATCC 11778, 18 h, read-out: DIZ
[27] = tested on: Bacillus cereus; experiment: Antimicrobial activity against Bacillus cereus ATCC 11778 after 18 hrs by twofold dilution technique; settings: ATCC 11778, 18 h
[28] = tested on: Staphylococcus aureus; experiment: Antimicrobial activity against methicillin-resistant Staphylococcus aureus 140/6 by twofold dilution technique
[29] = tested on: Staphylococcus aureus; experiment: Antimicrobial activity against Staphylococcus aureus ATCC 29213 at 400 ug after 18 hrs by disk diffusion method; settings: ATCC 29213, 18 h, read-out: DIZ
[30] = tested on: Staphylococcus aureus; experiment: Antimicrobial activity against methicillin-resistant Staphylococcus aureus 144/6 by twofold dilution technique
[31] = tested on: Staphylococcus aureus; experiment: Antimicrobial activity against methicillin-resistant Staphylococcus aureus 136/6 by twofold dilution technique
[32] = tested on: Staphylococcus aureus; experiment: Antimicrobial activity against methicillin-resistant Staphylococcus aureus 236/7 by twofold dilution technique
[33] = tested on: Micrococcus luteus; experiment: Antimicrobial activity against Micrococcus luteus ATCC 10240 at 400 ug after 18 hrs by disk diffusion method; settings: ATCC 10240, 18 h, read-out: DIZ
[34] = tested on: Staphylococcus aureus; experiment: Antimicrobial activity against Methicillin susceptible Staphylococcus aureus 237/7 by twofold dilution technique
[35] = tested on: Bacillus subtilis; experiment: Antimicrobial activity against Bacillus subtilis ATCC 6633 after 18 hrs by twofold dilution technique; settings: ATCC 6633, 18 h
[36] = tested on: Micrococcus luteus; experiment: Antimicrobial activity against Micrococcus luteus ATCC 9341 at 400 ug after 18 hrs by disk diffusion method
[37] = tested on: Micrococcus luteus; experiment: Antimicrobial activity against Micrococcus luteus ATCC 9341 after 18 hrs by twofold dilution technique; settings: ATCC 9341, 18 h
[38] = tested on: Staphylococcus aureus; experiment: Antimicrobial activity against Staphylococcus aureus ATCC 29213 after 18 hrs by twofold dilution technique; settings: ATCC 29213, 18 h
[39] = tested on: Staphylococcus aureus; experiment: Antimicrobial activity against methicillin-resistant Staphylococcus aureus 146/6 by twofold dilution technique
[40] = tested on: Staphylococcus aureus; experiment: Antimicrobial activity against Staphylococcus aureus NCTC 4163 at 400 ug after 18 hrs by disk diffusion method; settings: NCTC 4163, 18 h, read-out: DIZ

SMILES | MIC [1] [µg/mL] | MIC [2] [µg/mL] | zone of inhibition at 400 µg/disc [3] [mm] | MIC [4] [µg/mL] | MIC [5] [µg/mL] | MIC [6] [µg/mL] | MIC [7] [µg/mL] | MIC [8] [µg/mL] | MIC [9] [µg/mL] | zone of inhibition at 400 µg/disc [10] [mm] | MIC [11] [µg/mL] | MIC [12] [µg/mL] | MIC [13] [µg/mL] | MIC [14] [µg/mL] | zone of inhibition at 400 µg/disc [15] [mm] | MIC [16] [µg/mL] | MIC [17] [µg/mL] | MIC [18] [µg/mL] | zone of inhibition at 400 µg/disc [19] [mm] | MIC [20] [µg/mL] | other results
Cc1cc2c(c(O)c1-c1c(C)cc3c(c1O)/C(=C/NCC1COCCOCCOCCOCCOCCO1)C(=O)C(O)=C3C(C)C)/C(=C/NCC1COCCOCCOCCOCCOCCO1)C(=O)C(O)=C2C(C)C (centres undefined) | 100 (≈ 93.5 µM) | 100 (≈ 93.5 µM) | 11 | 100 (≈ 93.5 µM) | 100 (≈ 93.5 µM) | 100 (≈ 93.5 µM) | 100 (≈ 93.5 µM) | 100 (≈ 93.5 µM) | 100 (≈ 93.5 µM) | 11 | 200 (≈ 187 µM) | 100 (≈ 93.5 µM) | 100 (≈ 93.5 µM) | 100 (≈ 93.5 µM) | 11 | 100 (≈ 93.5 µM) | 200 (≈ 187 µM) | 200 (≈ 187 µM) | 12 | 200 (≈ 187 µM) | MIC [21]: > 400 µg/mL; MIC [22]: 100 µg/mL (≈ 93.5 µM); diameter of the inhibition zone (DIZ) [23]: inactive; MIC [24]: 100 µg/mL (≈ 93.5 µM); MIC [25]: 200 µg/mL (≈ 187 µM); zone of inhibition at 400 µg/disc [26]: 11 mm; MIC [27]: 100 µg/mL (≈ 93.5 µM); MIC [28]: 100 µg/mL (≈ 93.5 µM); zone of inhibition at 400 µg/disc [29]: 11 mm; MIC [30]: 100 µg/mL (≈ 93.5 µM); MIC [31]: 100 µg/mL (≈ 93.5 µM); MIC [32]: 100 µg/mL (≈ 93.5 µM); zone of inhibition at 400 µg/disc [33]: 14 mm; MIC [34]: 100 µg/mL (≈ 93.5 µM); MIC [35]: 200 µg/mL (≈ 187 µM); diameter of the inhibition zone (DIZ) [36]: inactive; MIC [37]: 100 µg/mL (≈ 93.5 µM); MIC [38]: 100 µg/mL (≈ 93.5 µM); MIC [39]: 100 µg/mL (≈ 93.5 µM)
Cc1cc2c(c(O)c1-c1c(C)cc3c(c1O)/C(=C/N)C(=O)C(O)=C3C(C)C)/C(=C/N)C(=O)C(O)=C2C(C)C | 50 (≈ 96.8 µM) | 100 (≈ 194 µM) | 13 | 100 (≈ 194 µM) | 200 (≈ 387 µM) | 100 (≈ 194 µM) | 100 (≈ 194 µM) | 100 (≈ 194 µM) | 100 (≈ 194 µM) | 11 | 100 (≈ 194 µM) | 100 (≈ 194 µM) | 100 (≈ 194 µM) | 100 (≈ 194 µM) | 14 | 100 (≈ 194 µM) | 100 (≈ 194 µM) | 100 (≈ 194 µM) | 12 | 200 (≈ 387 µM) | MIC [21]: > 400 µg/mL; MIC [22]: 100 µg/mL (≈ 194 µM); diameter of the inhibition zone (DIZ) [23]: inactive; MIC [24]: 50 µg/mL (≈ 96.8 µM); MIC [25]: 200 µg/mL (≈ 387 µM); zone of inhibition at 400 µg/disc [26]: 11 mm; MIC [27]: 50 µg/mL (≈ 96.8 µM); MIC [28]: 100 µg/mL (≈ 194 µM); zone of inhibition at 400 µg/disc [29]: 13 mm; MIC [30]: 100 µg/mL (≈ 194 µM); MIC [31]: 100 µg/mL (≈ 194 µM); MIC [32]: 100 µg/mL (≈ 194 µM); zone of inhibition at 400 µg/disc [33]: 14 mm; zone of inhibition at 400 µg/disc [40]: 15 mm; MIC [34]: 100 µg/mL (≈ 194 µM); MIC [35]: 100 µg/mL (≈ 194 µM); zone of inhibition at 400 µg/disc ([36]; ATCC 9341, 18 h, read-out: DIZ): 11 mm; MIC [37]: 100 µg/mL (≈ 194 µM); MIC [38]: 50 µg/mL (≈ 96.8 µM); MIC [39]: 100 µg/mL (≈ 194 µM)
Cc1cc2c(C(C)C)c(O)c(O)c(/C=N/N3CCN(CCO)CC3)c2c(O)c1-c1c(C)cc2c(C(C)C)c(O)c(O)c(/C=N/N3CCN(CCO)CC3)c2c1O | 25 (≈ 32.3 µM) | 50 (≈ 64.7 µM) | 13 | 50 (≈ 64.7 µM) | 50 (≈ 64.7 µM) | 50 (≈ 64.7 µM) | 50 (≈ 64.7 µM) | 50 (≈ 64.7 µM) | 50 (≈ 64.7 µM) | 12 | 50 (≈ 64.7 µM) | 50 (≈ 64.7 µM) | 25 (≈ 32.3 µM) | 25 (≈ 32.3 µM) | 12 | 50 (≈ 64.7 µM) | 25 (≈ 32.3 µM) | 50 (≈ 64.7 µM) | 14 | 50 (≈ 64.7 µM) | MIC [21]: 200 µg/mL (≈ 259 µM); MIC [22]: 25 µg/mL (≈ 32.3 µM); diameter of the inhibition zone (DIZ) [23]: inactive; MIC [24]: 12.5 µg/mL (≈ 16.2 µM); MIC [25]: 50 µg/mL (≈ 64.7 µM); zone of inhibition at 400 µg/disc [26]: 12 mm; MIC [27]: 25 µg/mL (≈ 32.3 µM); MIC [28]: 50 µg/mL (≈ 64.7 µM); zone of inhibition at 400 µg/disc [29]: 12 mm; MIC [30]: 50 µg/mL (≈ 64.7 µM); MIC [31]: 50 µg/mL (≈ 64.7 µM); MIC [32]: 25 µg/mL (≈ 32.3 µM); zone of inhibition at 400 µg/disc [33]: 15 mm; zone of inhibition at 400 µg/disc [40]: 13 mm; MIC [34]: 25 µg/mL (≈ 32.3 µM); MIC [35]: 100 µg/mL (≈ 129 µM); diameter of the inhibition zone (DIZ) [36]: inactive; MIC [37]: 50 µg/mL (≈ 64.7 µM); MIC [38]: 25 µg/mL (≈ 32.3 µM); MIC [39]: 50 µg/mL (≈ 64.7 µM)
